According to patent publication US10278394B2, “Compounds derived from herbicidal carboxylic acids and tetraalkylammonium or (arylalkyl)trialkylammonium hydroxides” (Dow AgroSciences LLC, priority 2007, dated 2019):

System: grapes (Vitis labrusca L.)
Test: Volatility evaluation: injury to grapes from vapor exposure to treated wheat
Format: in vivo
Conditions: wheat sprayed at 11200 g ae/ha; 24 hour vapor exposure at 40° C.; evaluated 7 days after exposure
From the text: Method for evaluating the volatility of herbicide standards and the compounds derived from combining a carboxylic acid herbicide with either a tetraalkylammonium or an (arylalkyl)trialkylammonium hydroxide.
Four pots of wheat (Triticum aestivum L.) grown in 4 inch square pots were sprayed at 11200 g ae/ha with each of the different forms of 2,4-D. Treatments were applied with a tracksprayer manufactured by Allen Machine Works. The sprayer utilized an 8002E spray nozzle, spray pressure of 262 kPa pressure and speed of 1.5 mph (2.4 km/h) to deliver 187 L/Ha. The nozzle height was 46 cm above the plant canopy. The growth stage of the wheat was 1 to 2 leaf. The wheat plants were allowed to thoroughly dry to ensure that none of the spray solution was present when they were moved into a clean pot flat. A known sensitive species, grapes (Vitis labrusca L.) were placed at the opposite end of the flat. All of the pots were covered with a humidome with small ½ inch (1.27 cm) diameter holes cut into the end where the wheat was placed and a small box fan powered with a battery in the other end to pull air across the treated wheat plants and over the top of grapes. […] A 24 hour exposure period was used after which the sensitive plants were then removed and placed in the greenhouse and evaluated for injury from vapor exposure to the treatments.

For `CNC.COc1c(Cl)ccc(Cl)c1C(=O)O` [Dicamba DMA], the “% Injury to grapes from vapor exposure” value was 70%.
